The values that follow come from ChEMBL document CHEMBL1145000, “Nitro and amino substitution in the D-ring of 5-(2-dimethylaminoethyl)- 2,3-methylenedioxy-5H-dibenzo[c,h][1,6]naphthyridin-6-ones: effect on topoisomerase-I targeting activity and cytotoxicity” (J Med Chem, 2003).

In one test the test system is RPMI 8402. The test is described as follows: Cytotoxic activity against human lymphoblast tumor cell line RPMI8402 after 4 days of treatment. Type of test: functional, cell-based. The settings on record: RPMI 8402, 96 h.
Test [1] deals with T1, DNA topoisomerase 1 (Homo sapiens) (UniProt P11387).
T1 sequence (whole entry): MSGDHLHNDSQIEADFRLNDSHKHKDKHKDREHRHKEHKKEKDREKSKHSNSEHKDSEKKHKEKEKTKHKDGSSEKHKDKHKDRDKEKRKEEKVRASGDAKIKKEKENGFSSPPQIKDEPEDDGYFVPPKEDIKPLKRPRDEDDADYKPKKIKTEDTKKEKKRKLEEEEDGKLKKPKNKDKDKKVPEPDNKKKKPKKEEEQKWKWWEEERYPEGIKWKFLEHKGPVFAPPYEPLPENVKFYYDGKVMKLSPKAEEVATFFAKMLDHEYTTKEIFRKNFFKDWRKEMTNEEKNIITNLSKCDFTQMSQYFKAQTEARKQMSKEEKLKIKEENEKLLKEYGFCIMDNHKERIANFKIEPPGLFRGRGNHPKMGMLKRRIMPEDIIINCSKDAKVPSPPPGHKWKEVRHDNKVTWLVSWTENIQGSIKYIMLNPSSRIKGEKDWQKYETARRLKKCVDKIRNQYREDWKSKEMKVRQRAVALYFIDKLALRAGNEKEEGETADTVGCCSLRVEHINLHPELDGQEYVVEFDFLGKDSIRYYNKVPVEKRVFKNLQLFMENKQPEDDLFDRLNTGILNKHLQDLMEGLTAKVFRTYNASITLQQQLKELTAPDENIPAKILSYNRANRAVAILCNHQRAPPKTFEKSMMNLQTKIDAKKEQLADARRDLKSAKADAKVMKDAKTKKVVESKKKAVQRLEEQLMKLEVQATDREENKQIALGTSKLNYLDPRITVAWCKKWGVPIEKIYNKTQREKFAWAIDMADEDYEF
Description: Effective concentration required to cleave DNA, mediated by human DNA topoisomerase I (TOP1) reported as REC i.e. concentration relative to topotecan (assumed as 1)

Test [2] in a line: Cytotoxic activity against human lymphoblast tumor cell line CPT-K5 after 4 days of treatment. Type of test: functional. As to conditions: CPT-K5, 96 h.

SMILES strings stand for the structures.

As to `CN1CCN(c2ccnc3cc4c(cc23)OCO4)C(=O)c2cc([N+](=O)[O-])ccc21`, the IC50 with RPMI 8402 was 3000 nM; in test [2] it was more than 10000 nM. In test [1], this molecule displayed an REC of 1000.
For `CN(C)CCn1c(=O)c2ccccc2c2cnc3cc4c(cc3c21)OCO4`, in that order: 60 nM, 950 nM and 6.
On to `COc1cc2c(=O)n(CCN(C)C)c3c4cc5c(cc4ncc3c2cc1OC)OCO5`, for which half-maximal inhibition in test [2] (IC50) was put at 900 nM.
Regarding `CN(C)CCn1c(=O)c2ccc([N+](=O)[O-])cc2c2cnc3cc4c(cc3c21)OCO4`, the values for the IC50 (with RPMI 8402; in test [2]) were 2 nM and 2800 nM, respectively. For the same molecule, the REC in test [1] was 0.1.
With `CN(C)CCn1c(=O)c2cccc([N+](=O)[O-])c2c2cnc3cc4c(cc3c21)OCO4`, the IC50 was 4800 nM with RPMI 8402 and more than 10000 nM in test [2]. In test [1], the REC came out at 1000.
Regarding `COc1cc2c(=O)n(CCN(C)C)c3c4cc5c(cc4nnc3c2cc1OC)OCO5`, the REC in test [1] is 0.3. The molecule further showed an IC50 in test [2] of 600 nM.
With `CCCCn1c(=O)c2cc([N+](=O)[O-])ccc2c2cnc3cc4c(cc3c21)OCO4`, the IC50 with RPMI 8402 was 240 nM; in test [2] it was more than 10000 nM. Further, the REC in test [1] amounted to 10.
For the molecule `CN(C)CCn1c(=O)c2cc([N+](=O)[O-])ccc2c2cnc3cc4c(cc3c21)OCO4`, the IC50 came out at 3 nM in the test on RPMI 8402 and 330 nM in test [2]. Moreover, the REC in test [1] turned out to be 0.2.
In test [1], `COc1cc([C@@H]2c3cc4c(cc3[C@@H](O[C@@H]3O[C@@H]5CO[C@@H](c6cccs6)O[C@H]5[C@H](O)[C@H]3O)[C@H]3COC(=O)[C@H]23)OCO4)cc(OC)c1O` [TENIPOSIDE] gave an REC of more than 1000. In test [2], this molecule came in with an IC50 of 280 nM.
As to `CCCCn1c(=O)c2cc(N)ccc2c2cnc3cc4c(cc3c21)OCO4`, the IC50 with RPMI 8402 is 1250 nM; in test [2], more than 10000 nM. Also, the REC in test [1] came to 500.
For the molecule `CN(C)CCn1c(=O)c2ccc(N)cc2c2cnc3cc4c(cc3c21)OCO4`, the figures for the IC50 (in the test with RPMI 8402; in test [2]) were 25 nM and 1000 nM, respectively. For the same molecule, the REC in test [1] stood at 0.5.
With `CN(C)CCn1c(=O)c2cc(N)ccc2c2cnc3cc4c(cc3c21)OCO4`, the results for the IC50 (in the test on RPMI 8402; in test [2]) were 80 nM and 380 nM, respectively. This molecule also yielded an REC in test [1] of 8.
In the case of `CC[C@@]1(O)C(=O)OCc2c1cc1n(c2=O)Cc2cc3c(CN(C)C)c(O)ccc3nc2-1` [TOPOTECAN], the REC in test [1] was determined as 1. In addition, in test [2], the IC50 was more than 50000 nM.
For the molecule `CN(C)CCn1c(=O)c2cccc(N)c2c2cnc3cc4c(cc3c21)OCO4`, the IC50 in the test with RPMI 8402 came to 340 nM; in test [2] it was 3200 nM. Besides, in test [1], the REC was determined as 15.
Molecule `CC[C@@]1(O)C(=O)OCc2c1cc1n(c2=O)Cc2cc3ccccc3nc2-1` [CAMPTOTHECIN] showed an IC50 with RPMI 8402 of 5 nM. The molecule further yielded an REC in test [1] of 0.5.

One may read the IC50 as the concentration needed to halve the response being measured.
